# Biological target: CDK9 (Homo sapiens, UniProt P50750)
# Assay: DSF thermal shift
# Format: binding
# CDK9, sequence (P50750 1-330): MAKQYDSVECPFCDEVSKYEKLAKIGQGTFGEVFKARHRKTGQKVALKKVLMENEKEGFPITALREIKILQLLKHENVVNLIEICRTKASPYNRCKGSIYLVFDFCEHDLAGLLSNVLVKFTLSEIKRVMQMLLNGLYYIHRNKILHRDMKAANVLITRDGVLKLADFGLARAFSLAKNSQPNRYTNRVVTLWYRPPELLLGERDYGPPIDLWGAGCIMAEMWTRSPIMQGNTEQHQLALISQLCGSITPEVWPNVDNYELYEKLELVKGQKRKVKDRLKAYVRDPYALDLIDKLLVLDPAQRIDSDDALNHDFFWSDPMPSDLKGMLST
# CDK9, sequence (O60563 1-259 partner): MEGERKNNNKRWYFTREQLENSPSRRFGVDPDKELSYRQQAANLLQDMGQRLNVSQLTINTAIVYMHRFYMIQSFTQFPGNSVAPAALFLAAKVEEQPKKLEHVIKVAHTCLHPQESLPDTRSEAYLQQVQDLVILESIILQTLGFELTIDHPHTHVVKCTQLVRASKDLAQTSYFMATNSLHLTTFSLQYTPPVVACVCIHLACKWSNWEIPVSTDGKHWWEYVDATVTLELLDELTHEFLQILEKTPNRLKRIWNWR
smiles,measurement,value
OC[C@H]1O[C@@H](n2cnc3cc(Cl)c(Cl)cc32)[C@H](O)[C@@H]1O [DRB],DSF thermal shift (no Kd),"we tested the ability of known CDK9 inhibitors (DRB, CAN508, (S)-CR8, Roscovitine, Staurosporine"

# Source: paper PMC3355656 (2012)
